ChEMBL document CHEMBL1133787, “Solid-phase optimisation of achiral amidinobenzyl indoles as potent and selective factor Xa inhibitors” (Bioorg Med Chem Lett, 2001)

Key:
Prothrombin = Prothrombin (Homo sapiens, UniProt P00734); test: Inhibitory activity against thrombin was determined
Coagulation factor X = Coagulation factor X (Homo sapiens, UniProt P00742); test: Inhibitory activity against serine protease factor Xa (fXa) was determined
Chain of Coagulation factor X (P00742 41-179 limits assumed): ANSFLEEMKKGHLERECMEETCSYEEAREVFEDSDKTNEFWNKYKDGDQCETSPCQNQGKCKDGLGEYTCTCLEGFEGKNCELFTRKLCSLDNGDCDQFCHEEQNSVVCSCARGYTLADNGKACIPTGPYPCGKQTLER
Chain of Coagulation factor X (P00742 235-488 limits assumed): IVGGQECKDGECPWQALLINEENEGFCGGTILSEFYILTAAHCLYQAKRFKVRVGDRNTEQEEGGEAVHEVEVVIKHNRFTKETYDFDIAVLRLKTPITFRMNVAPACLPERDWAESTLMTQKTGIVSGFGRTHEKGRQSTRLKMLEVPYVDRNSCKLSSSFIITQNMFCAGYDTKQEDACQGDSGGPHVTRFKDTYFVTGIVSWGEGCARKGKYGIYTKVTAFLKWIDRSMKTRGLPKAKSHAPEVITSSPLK

Compound | Ki (Prothrombin) [nM] | Ki (Coagulation factor X) [nM]
C[N+](C)(C)c1ccc(CNC(=O)c2cc3cc(O)ccc3n2Cc2cccc(C(=N)N)c2)cc1 | 12000 | 28
Cc1cc(C)cc(CNC(=O)c2cc3c(O)cccc3n2Cc2cccc(C(=N)N)c2)c1 | 620 | 11
N=C(N)c1cccc(CNC(=O)c2cc3cc(N)ccc3n2Cc2cccc(C(=N)N)c2)c1 |  | 84
N=C(N)c1cccc(CNC(=O)c2cc3c(O)cccc3n2Cc2cccc(C(=N)N)c2)c1 | 3600 | 
N=C(N)c1cccc(Cn2c(C(=O)NCc3cccc(Cl)c3)cc3c(O)cccc32)c1 |  | 262
N=C(N)c1cccc(Cn2c(C(=O)Nc3cc(Cl)cc(Cl)c3)cc3c(O)cccc32)c1 |  | 798
N=C(N)c1cccc(Cn2c(C(=O)NCCc3cccc(Cl)c3)cc3c(O)cccc32)c1 |  | 707
N=C(N)c1cccc(Cn2c(C(=O)NCc3cc(Cl)cc(Cl)c3)cc3c(O)cccc32)c1 | 771 | 5
